Measurements reported in patent publication US4623662A, “Antiatherosclerotic ureas and thioureas” (American Cyanamid Company, priority 1985, dated 1986).
Read-outs that look alike come from different tables or passages of the source.

Tests used:
[1] = molecular target: T1, fatty acyl CoA:cholesterol acyl transferase (ACAT) (Rattus norvegicus, UniProt Q7TQM4); assay: Inhibition of ACAT from microsomes isolated from rat intestinal mucosal cells; format: biochemical
T1 construct: the enzyme was derived from microsomes isolated from rat intestinal mucosal cells; from tissue; host or cells: rat intestinal mucosal cells, microsomes
T1 sequence (Q7TQM4 1-524): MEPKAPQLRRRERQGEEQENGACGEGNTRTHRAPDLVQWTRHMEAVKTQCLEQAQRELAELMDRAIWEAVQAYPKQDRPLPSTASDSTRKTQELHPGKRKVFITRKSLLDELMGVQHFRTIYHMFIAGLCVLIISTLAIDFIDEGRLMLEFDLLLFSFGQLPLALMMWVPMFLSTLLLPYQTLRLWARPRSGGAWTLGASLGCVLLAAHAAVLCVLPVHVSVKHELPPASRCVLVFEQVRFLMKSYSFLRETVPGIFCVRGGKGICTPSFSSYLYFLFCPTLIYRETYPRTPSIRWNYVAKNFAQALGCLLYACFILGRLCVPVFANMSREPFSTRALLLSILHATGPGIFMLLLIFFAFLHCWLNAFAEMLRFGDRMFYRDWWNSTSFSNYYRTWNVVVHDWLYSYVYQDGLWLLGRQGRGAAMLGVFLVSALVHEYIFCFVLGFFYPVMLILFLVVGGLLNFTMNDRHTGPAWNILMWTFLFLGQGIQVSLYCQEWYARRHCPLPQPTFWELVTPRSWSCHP
Description: The compounds were tested for their ability to inhibit ACAT according to the following procedure: rat adrenals were homogenized in 0.2M monobasic potassium phosphate buffer, pH 7.4, and centrifuged at 1,000 times gravity for 15 minutes at 5° C. The supernatant, containing the microsomal fraction, served as the source of the cholesterol-esterifying enzyme, fatty acyl CoA:cholesterol acyl transferase (ACAT). A mixture comprising 50 parts of adrenal supernatant, 10 parts of bovine serum albumin (50 mg/ml), 3 parts of test compound (final concentration 5.2 μg/ml), and 500 parts of buffer was preincubated at 37° C. for 10 minutes. After treatment with 20 parts of oleoyl CoA (^14 C-0.4 μCi), the mixture was incubated at 37° C. for 10 minutes. A control mixture, omitting the test compound, was prepared and treated in the same manner. The lipids from the incubation mixture was extracted into an organic solvent and separated by thin-layer chromatography. The cholesteryl ester fraction was counted in a scintillation counter. This procedure is a modification of that described by Hashimoto, et al., Life Scie., 12 (Part II), 1-12 (1973).
The compounds of this invention were tested in vitro at several concentrations for their ability to inhibit the enzyme fatty acyl CoA:cholesterol acyl transferase (ACAT) using the hereinabove described procedure except that the enzyme was derived from microsomes isolated from rat intestinal mucosal cells rather than rat adrenal cells. The results of this test on representative compounds of this invention are given in Table III in terms of IC50 (μM), that concentration which produced 50% inhibition of the ACAT enzyme.

[2] = system: cholesterol absorption; assay: Inhibition of cholesterol absorption in rats fed 1% cholesterol:0.5% cholic acid diet; format: in vivo, male Sprague-Dawley rats; details: po, 336 h, rat, 2 weeks; for response vs control in vivo at 0.01 %: dose .01% of the diet; for response vs control in vivo at 0.003 %: dose .003% of the diet; for response vs control in vivo at 0.03 %: dose .03% of the diet
Procedure, shortened: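 Male Sprague-Dawley rats (150-170 g) fed 1% cholesterol:0.5% cholic acid diet for 2 weeks with compound at 0.001, 0.003, 0.01 or 0.03% of diet. Serum cholesterol measured enzymatically; liver cholesterol from saponified large-lobe sample after petroleum ether extraction. Liver and serum sterol expressed as percent of untreated controls.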

[3] = molecular target: T2, fatty acyl CoA: cholesterol acyl transferase (ACAT) (Rattus norvegicus, UniProt O70536); assay: Inhibition of fatty acyl CoA:cholesterol acyl transferase (ACAT), rat adrenal enzyme; format: biochemical
T2 construct: The supernatant, containing the microsomal fraction, served as the source of the cholesterol-esterifying enzyme; from tissue; host or cells: rat adrenals, supernatant of 1,000 x g centrifugation containing the microsomal fraction
T2 sequence (O70536 1-545): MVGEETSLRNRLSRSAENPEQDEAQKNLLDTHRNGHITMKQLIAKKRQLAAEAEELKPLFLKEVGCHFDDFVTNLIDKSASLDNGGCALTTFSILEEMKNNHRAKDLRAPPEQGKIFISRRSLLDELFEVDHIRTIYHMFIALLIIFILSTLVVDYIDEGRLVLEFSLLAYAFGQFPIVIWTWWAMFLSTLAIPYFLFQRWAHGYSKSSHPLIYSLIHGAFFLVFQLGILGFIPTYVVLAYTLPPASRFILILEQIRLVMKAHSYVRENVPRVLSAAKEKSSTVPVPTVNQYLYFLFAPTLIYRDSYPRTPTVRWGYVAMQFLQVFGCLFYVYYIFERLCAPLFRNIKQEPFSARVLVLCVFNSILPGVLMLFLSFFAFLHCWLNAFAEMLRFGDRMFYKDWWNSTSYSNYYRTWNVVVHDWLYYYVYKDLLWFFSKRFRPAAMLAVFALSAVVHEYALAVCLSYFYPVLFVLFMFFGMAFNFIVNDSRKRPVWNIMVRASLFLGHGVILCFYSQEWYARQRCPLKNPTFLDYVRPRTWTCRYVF
Procedure, shortened: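 Enzyme source was the microsomal supernatant of rat adrenal homogenate (0.2M potassium phosphate, pH 7.4) with BSA, preincubated with compound (5.2 μg/ml final for single-point) for 10 min at 37° C. Then [14C]oleoyl CoA added, 10 min at 37° C. TLC-separated cholesteryl ester was counted; percent inhibition versus control, IC50 from several concentrations.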

[4] = read-out: LS (liver sterol), percentage of control values
[5] = read-out: SS (serum sterol), percentage of control values

Structure (SMILES)	IC50 [1]	inhibition at 5.2 µg/mL [3]	response vs control in vivo at 0.03 % [2, 4]	response vs control in vivo at 0.03 % [2, 5]	also measured
CCCCCCCN(Cc1ccc(CC(C)C(C)CC)cc1)C(=O)Nc1c(C)cc(Cl)cc1C (stereo not drawn) [1-(n-Heptyl)-1-[4-(2,3-dimethylpentyl)benzyl]-3-(4-chloro-2,6-dimethylphenyl)urea]	20 nM	–	–	–	response vs control in vivo at 0.01 % [2, 4]: 40%; response vs control in vivo at 0.01 % [2, 5]: 43%
CCCCCCCN(Cc1ccc(CC[S+]([O-])C(C)C)cc1)C(=O)Nc1ccc(F)cc1F (stereo not drawn) [1-(n-Heptyl)-1-[4-(2-isopropylsulfinylethyl)benzyl]-3-(2,4-difluorophenyl)urea]	220 nM	–	–	–	response vs control in vivo at 0.003 % [2, 4]: 84%
CCCCCCCN(Cc1ccc(CCSC(C)C)cc1)C(=O)Nc1ccc(F)cc1F [1-(n-Heptyl)-1-[4-(2-isopropylthioethyl)benzyl]-3-(2,4-difluorophenyl)urea]	210 nM	–	–	–	response vs control in vivo at 0.003 % [2, 4]: 72%
CCCCCCCN(Cc1ccc(CCCC(=O)O)cc1)C(=O)Nc1c(C)cc(Cl)cc1C [1-(n-Heptyl)-1-[4-(3-carboxypropyl)benzyl]-3-(4-chloro-2,6-dimethylphenyl)urea]	1020 nM	–	–	–	IC50 ([3]; rat adrenal ACAT, several concentrations): 7220 nM
CCCCCCCN(Cc1ccc(CC2CCCC2)cc1)C(=O)Nc1ccc(F)cc1F [1-(n-Heptyl)-1-[4-(4-cyclopentylmethyl)benzyl]-3-(2,4-difluorophenyl)urea]	140 nM	–	–	–	response vs control in vivo at 0.01 % [2, 4]: 80%
CCCCCCCN(Cc1ccc(CCCCSC(C)C)cc1)C(=O)Nc1ccc(F)cc1F [1-(n-Heptyl)-1-[4-(4-isopropylthiobutyl)benzyl]-3-(2,4-difluorophenyl)urea]	3270 nM	–	–	–	–
CCCCCCCN(Cc1ccc(COC(C)=O)cc1)C(=O)Nc1ccc(F)cc1F [1-(n-Heptyl)-1-[4-(acetoxymethyl)benzyl]-3-(2,4-difluorophenyl)urea]	120 nM	–	–	–	response vs control in vivo at 0.01 % [2, 4]: 70%
CCCCCCCN(Cc1ccc(CC(=O)OC)cc1)C(=O)Nc1ccc(F)cc1F [1-(n-Heptyl)-1-[4-(carbomethoxymethyl)benzyl]-3-(2,4-difluorophenyl)urea]	1750 nM	–	–	–	–
CCCCCCCN(Cc1ccc(CC(=O)O)cc1)C(=O)Nc1ccc(F)cc1F [1-(n-Heptyl)-1-[4-(carboxymethyl)benzyl]-3-(2,4-difluorophenyl)urea]	24000 nM	–	–	–	–
CCCCCCCN(Cc1ccc(CO)cc1)C(=O)Nc1ccc(F)cc1F [1-(n-Heptyl)-1-[4-(hydroxymethyl)benzyl]-3-(2,4-difluorophenyl)urea]	200 nM	–	–	–	response vs control in vivo at 0.003 % [2, 4]: 81%
CCCCCCCN(Cc1ccc(COCCC(C)C)cc1)C(=O)Nc1c(F)cc(F)cc1F [1-(n-Heptyl)-1-[4-(isopentyloxymethyl)benzyl]-3-(2,4,6-trifluorophenyl)urea]	180 nM	–	–	–	response vs control in vivo at 0.001 % ([2]; dose .001% of the diet, read-out: LS (liver sterol), percentage of control values): 75%
CCCCCCCN(Cc1ccc(COCCC(C)C)cc1)C(=O)Nc1ccc(F)cc1F [1-(n-Heptyl)-1-[4-(isopentyloxymethyl)benzyl]-3-(2,4-difluorophenyl)urea]	330 nM	–	–	–	response vs control in vivo at 0.01 % [2, 4]: 60%
CCCCCCCN(Cc1ccc(COCCC(C)C)cc1)C(=O)Nc1c(C)cc(Cl)cc1C [1-(n-Heptyl)-1-[4-(isopentyloxymethyl)benzyl]-3-(4-chloro-2,6-dimethylphenyl)urea]	130 nM	–	–	–	response vs control in vivo at 0.003 % [2, 4]: 47%
CCCCc1ccc(CN(CCCCCCO)C(=O)Nc2cc(C)c(C)cc2C)cc1 [1-[(4-Butylphenyl)methyl]-1-(6-hydroxyhexyl)-3-(2,4,5-trimethylphenyl)urea]	–	90%	39%	57%	–
CCCCc1ccc(CN(CCCCCCO)C(=O)Nc2c(Cl)cc(Cl)cc2Cl)cc1 [1-[(4-Butylphenyl)methyl]-1-(6-hydroxyhexyl)-3-(2,4,6-trichlorophenyl)urea]	–	90%	32%	35%	–
CCCCCCCN(Cc1ccc(CCCC)cc1)C(=O)Nc1ccc(F)cc1F [1-[(4-Butylphenyl)methyl]-1-(n-heptyl)-3-[2,4-difluorophenyl]urea]	–	90%	19%	35%	–
CCCCc1ccc(CN(CCOCCO)C(=O)Nc2cc(C)c(C)cc2C)cc1 [1-[(4-Butylphenyl)methyl]-1-[2-(2-hydroxyethoxy)ethyl]-3-(2,4,5-trimethylphenyl)urea]	–	–	76%	100%	inhibition at 5.2 µg/mL ([3]; rat adrenal ACAT, final concentration 5.2 μg/ml, read-out: % Inhibition): 85.9%
CCCCc1ccc(CN(CCCCC[Si](C)(C)C)C(=O)Nc2ccc(F)cc2F)cc1 [1-[(4-Butylphenyl)methyl]-3-(2,4-difluorophenyl)-1-[5-(trimethylsilyl)pentyl]urea]	–	90%	57%	62%	–
CCCCc1ccc(CN(CCCCCCC#N)C(=O)Nc2ccc(Cl)cc2C)cc1 [1-[(4-Butylphenyl)methyl]-3-(4-chloro-2-methylphenyl)-1-(6-cyanohexyl)urea]	–	90%	50%	48%	–
CCCCc1ccc(CN(CCCCCCO)C(=O)Nc2ccc(Cl)cc2C)cc1 [1-[(4-Butylphenyl)methyl]-3-(4-chloro-2-methylphenyl)-1-(6-hydroxyhexyl)urea]	–	90%	53%	6%	–
CCCCc1ccc(CN(CCCCC[Si](C)(C)C)C(=O)Nc2ccc(Cl)cc2C)cc1 [1-[(4-Butylphenyl)methyl]-3-(4-chloro-2-methylphenyl)-1-[5-(trimethylsilyl)pentyl]urea]	–	90%	62%	50%	–
CC(C)(C)CCN(Cc1cccs1)C(=O)Nc1ccc(F)cc1F [3-(2,4-Difluorophenyl)-1-(3,3-dimethylbutyl)-1-(2-thienylmethyl)urea]	–	90%	73%	66%	–
Cc1cc(Cl)ccc1NC(=O)N(CCC(C)(C)C)Cc1cccs1 [3-(4-Chloro-2-methylphenyl)-1-(3,3-dimethylbutyl)-1-(2-thienylmethyl)urea]	–	90%	64%	62%	–
